Values of other authors in US12054562B2, “Cell-permeable inhibitory agent and methods of use thereof in treatment of cognitive and mood disorders” (priority 2015, dated 2024).

Experiments:
α5GABAA receptor [1] = target: T1, α5GABAA receptor (Homo sapiens, UniProt P18507+P31644); conditions: cited from earlier work
T1 sequence (P31644 32-462): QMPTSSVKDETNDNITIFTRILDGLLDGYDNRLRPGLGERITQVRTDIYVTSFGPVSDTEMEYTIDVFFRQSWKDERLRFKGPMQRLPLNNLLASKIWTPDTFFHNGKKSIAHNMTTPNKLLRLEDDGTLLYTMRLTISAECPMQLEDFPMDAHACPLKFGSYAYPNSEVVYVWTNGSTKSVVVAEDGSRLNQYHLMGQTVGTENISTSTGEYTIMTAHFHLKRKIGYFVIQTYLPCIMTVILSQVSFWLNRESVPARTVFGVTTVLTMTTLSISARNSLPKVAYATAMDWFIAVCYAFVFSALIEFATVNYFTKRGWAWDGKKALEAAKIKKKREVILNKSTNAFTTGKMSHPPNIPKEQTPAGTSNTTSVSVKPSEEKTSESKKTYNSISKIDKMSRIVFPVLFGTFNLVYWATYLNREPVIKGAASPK
T1 sequence (P18507 40-467 limits assumed): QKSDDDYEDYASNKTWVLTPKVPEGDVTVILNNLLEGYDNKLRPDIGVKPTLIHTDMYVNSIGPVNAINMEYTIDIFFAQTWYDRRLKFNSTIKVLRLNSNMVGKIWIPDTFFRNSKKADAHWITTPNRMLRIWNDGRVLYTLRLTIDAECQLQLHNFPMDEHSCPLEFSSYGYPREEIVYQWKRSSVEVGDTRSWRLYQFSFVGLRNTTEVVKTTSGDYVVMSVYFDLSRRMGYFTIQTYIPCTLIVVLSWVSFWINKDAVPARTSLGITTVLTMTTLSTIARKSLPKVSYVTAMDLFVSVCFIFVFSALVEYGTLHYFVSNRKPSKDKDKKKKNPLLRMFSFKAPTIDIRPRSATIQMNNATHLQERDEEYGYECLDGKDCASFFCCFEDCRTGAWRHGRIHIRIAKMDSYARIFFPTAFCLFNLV
T1 sequence (P28472 26-473 partner): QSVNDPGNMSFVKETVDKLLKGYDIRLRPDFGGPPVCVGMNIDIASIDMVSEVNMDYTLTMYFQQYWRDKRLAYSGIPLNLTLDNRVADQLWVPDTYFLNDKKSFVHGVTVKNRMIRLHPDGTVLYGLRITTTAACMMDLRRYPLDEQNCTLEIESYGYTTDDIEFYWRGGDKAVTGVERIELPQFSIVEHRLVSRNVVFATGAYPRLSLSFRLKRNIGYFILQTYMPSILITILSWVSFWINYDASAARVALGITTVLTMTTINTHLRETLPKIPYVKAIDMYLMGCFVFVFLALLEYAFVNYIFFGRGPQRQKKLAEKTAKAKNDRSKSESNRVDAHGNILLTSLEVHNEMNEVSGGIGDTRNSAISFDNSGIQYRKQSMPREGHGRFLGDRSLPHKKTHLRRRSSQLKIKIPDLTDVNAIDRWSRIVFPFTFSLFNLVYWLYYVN

α5GABAA receptor [2] = target: T1, α5GABAA receptor; conditions: cited from earlier work; remark: listed apart in the source
healthy subjects = conditions: cited from earlier work
[3] = target: T2, al subunit-containing GABAA receptors (Homo sapiens, UniProt P14867+P18507); conditions: at high concentrations; cited from earlier work
T2 sequence (P14867 28-456): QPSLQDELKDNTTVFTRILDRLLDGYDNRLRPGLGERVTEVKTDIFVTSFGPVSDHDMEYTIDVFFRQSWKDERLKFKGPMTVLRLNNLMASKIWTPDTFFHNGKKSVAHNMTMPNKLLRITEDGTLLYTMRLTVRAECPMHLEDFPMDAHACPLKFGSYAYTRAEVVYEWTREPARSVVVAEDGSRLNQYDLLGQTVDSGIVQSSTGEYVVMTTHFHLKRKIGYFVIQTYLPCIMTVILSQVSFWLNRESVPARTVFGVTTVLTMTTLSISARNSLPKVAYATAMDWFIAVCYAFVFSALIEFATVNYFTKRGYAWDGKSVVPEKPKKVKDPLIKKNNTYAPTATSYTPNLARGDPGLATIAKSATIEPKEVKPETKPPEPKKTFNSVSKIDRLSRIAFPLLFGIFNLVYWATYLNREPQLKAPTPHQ
T2 sequence (P18507 40-467 limits assumed): T1 sequence (P18507 40-467 limits assumed)
T2 sequence (P28472 26-473 partner): T1 sequence (P28472 26-473 partner)

patients = conditions: cited from earlier work

SMILES | efficacy for reducing α5GABAA receptor function (α5GABAA receptor [1]) | selectivity for α5GABAA receptors (α5GABAA receptor [2]) | ethanol-induced impaired performance (healthy subjects) | action on al subunit-containing GABAA receptors [3] | reason clinical trial was stopped (patients)
CCOC(=O)c1ncn2c1[C@@H]1CCCN1C(=O)c1cc(OC)ccc1-2 [L-655,708] | relatively low efficacy | 30-70 fold |  |  | 
Cc1cc(-c2nnc3c4ccccc4c(OCc4cn(C)nn4)nn23)no1 [α5IA] |  |  | improves | activates | renal toxicity
